In US11149028B2, “Methods for treating melanoma using small molecules” (NOVA SOUTHEASTERN UNIVERSITY, priority 2016, dated 2021):
“Also recorded” adds a separate entry of the source. Read-outs that look alike come from different tables or passages of the source.

What was measured:
DDX1 = biological target: T1, DDX1 (Homo sapiens, UniProt Q92499); assay: DARTS with western blot; assay type: binding; settings: WM266-4 lysates
T1 construct: WM-266-4 and M14 cells were sonicated in RIPA lysis buffer; endogenous in cells; host or cells: WM266-4 (and M14) melanoma cells and lysates
T1 sequence (Q92499 whole entry): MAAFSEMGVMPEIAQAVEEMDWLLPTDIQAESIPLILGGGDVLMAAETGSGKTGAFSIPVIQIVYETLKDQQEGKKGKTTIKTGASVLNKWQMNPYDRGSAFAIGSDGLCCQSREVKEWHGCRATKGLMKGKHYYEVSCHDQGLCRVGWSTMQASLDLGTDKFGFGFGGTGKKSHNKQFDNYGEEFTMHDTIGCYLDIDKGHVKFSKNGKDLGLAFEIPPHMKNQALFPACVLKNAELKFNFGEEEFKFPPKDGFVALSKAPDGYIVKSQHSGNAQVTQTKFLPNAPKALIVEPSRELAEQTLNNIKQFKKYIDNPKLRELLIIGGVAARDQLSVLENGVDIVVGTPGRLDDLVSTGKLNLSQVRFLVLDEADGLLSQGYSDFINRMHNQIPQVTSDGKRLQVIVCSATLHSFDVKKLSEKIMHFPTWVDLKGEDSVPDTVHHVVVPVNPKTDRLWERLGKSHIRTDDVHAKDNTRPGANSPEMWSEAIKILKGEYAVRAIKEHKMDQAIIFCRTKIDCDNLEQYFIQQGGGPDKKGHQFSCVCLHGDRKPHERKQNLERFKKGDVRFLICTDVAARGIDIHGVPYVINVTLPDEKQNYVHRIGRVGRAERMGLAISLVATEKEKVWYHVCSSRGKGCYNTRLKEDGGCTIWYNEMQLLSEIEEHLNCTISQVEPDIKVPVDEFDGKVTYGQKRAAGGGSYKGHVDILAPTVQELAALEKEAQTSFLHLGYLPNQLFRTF
Text: (§1) (FIG. 26A, DARTS workflow). Proteins that bind the lead present as bands of differential intensity on SDS-PAGE and are identified using proteomic techniques. […] Bands from non-treated control and sample treated with 2155-14 were excised, trypsinized, and run on LC/MS/MS. […] In addition to lamin A/C, lamin B2, transketolase (TKT), and cytoskeleton-associated protein 4 (CKAP4) were also identified as possible targets (Table 7 shown in FIG. 27). The exclusive unique peptide counts were too close to make the identification of one over the other with confidence.
(§2) WM266-4 melanoma cell lysates were prepared using a routine protocol with commercially available M-PER buffer supplemented with protease and phosphatase inhibitors. Lysates were split into control and compound test portions, and DMSO and 2155-14 were added to the respective lysate portions and incubated at RT for 1 h to allow for 2155-14 binding to its target(s). Pronase dilutions (1:100. 1:300, 1:1000. 1:3000 and 1:10000, Roche #10165921001) were prepared from 10 mg/mL stock. Lysates were split into 5 aliquots, and pronase dilutions were added to lysate aliquots and incubated at RT for 30 min. […]
(§3) Each sample was analyzed by liquid-chromatography-tandem MS (LC-MS/MS) using an EASY-nLC 1000 system coupled to a Q Exactive mass spectrometer (Thermo Fisher Scientific). […]

[1] = system: LC3-II and beclin-1 in M14 cells; assay: Western blotting for LC3 and beclin-1, M14; assay type: cell-based, human; settings: 24 h, 100 μM
Procedure: 1×10^6 of WM266-4 or M14 cells were seeded in 3 mL of E-MEM or RPMI-1640 medium supplemented with 10% FBS and 1% penicillin/streptomycin in 6 cm plates. […] After washing with TBST, the membranes were treated with chemilumiscent horseradish peroxidase detection reagent (Thermo Scientific, Cat #32209) and exposed to autoradiography film (Denville Scientific, Inc., Metuchen, N.J., USA, cat #E3018). ImageJ software (NIH, Bethesda, Md.) was used to quantify the intensity of proteins bands. The protein bands were normalized against loading controls (β-actin) and expressed as a fold of an untreated control.

M14 cells = system: M14 cells
Procedure: ApoTox-Glo™ Triplex Assay which allows one to simultaneously assess the effect of small molecules on cell viability, toxicity, caspase activity, and cell cycle all in the same well (Niles, A. L.; Moravec, R. A.; Riss, T. L. In vitro viability and cytotoxicity testing and same-well multi-parametric combinations for high throughput screening. Curr Chem Genomics 2009, 3, 33-41) was utilized. First, a mixture of 2 fluorogenic substrates was added to cells. GF-AFC substrate is cell-permeant and non-lytic to cells, allowing the measurement of active protease inside live cells. The second substrate (bis-AAF-R110 Substrate) is not cell-permeable and is only cleaved when proteases are released from cells due to the loss of membrane integrity typical of cell death. This step generates an inversely correlated measurement of cell viability and toxicity.
The second addition is luminogenic DEVD-peptide substrate for caspase-3/7 and Ultra-Glo™ Recombinant Thermostable Luciferase. Caspase-3/7 cleavage of the substrate generates a luminescent signal which correlates with caspase-3/7 activation as a key indicator of apoptosis. As markers for cytotoxicity and apoptosis are transient, the assay was conducted in time course format with time points at 4, 24, 48, and 72 h.
M14 #5 cells were plated in 384-well format at a density of 1,250 cells in 5 μL of serum-free DMEM media and incubated at 37° C. in 5% CO2 for 4 h. Control and test compounds were serially diluted in a ratio of 1:3 and added to wells in 4 μL. […] Plates were incubated at 37° C. in 5% CO2 for 4, 24, 48, and 72 h. At the end of each time point Viability/Cytotoxicity™ Reagent was prepared containing 400 μM glycylphenylalanyl-aminofluorocoumarin (GF-AFC) substrate (cleavable by live cell proteases) and 400 μM bis-alanylalanyl-phenylalanyl-rhodamine 110 (bis-AAF-R110) substrate (cleavable by dead cell proteases). 4 μL of the Viability/Cytotoxicity™ Reagent was used per well. The plate was incubated for 30 min at 37° C. Fluorescence was read at λEx=400 nm and λEm=505 nm for GF-AFC and λEx=485 nm and λEm=520 nm for bis-AAF-R110 on the BioTek Synergy™ 4 Multi-Mode Microplate Reader. Caspase-Glo® 3/7 Reagent was then added in 12 μL volume. The plate was incubated for 30 min at room temperature and luminescence was measured on the BioTek Synergy™ 4 Multi-Mode Microplate Reader.

hnRNP H2 = assay: DARTS with western blot; assay type: binding, human; settings: WM266-4 lysates
Text: as §1, §2, §3

hnRNP A2/B1 = assay: DARTS with western blot; assay type: binding, human; settings: WM266-4 lysates
Text: as §1, §2, §3

WM266-4 cells = assay: Annexin V flow cytometry assay; assay type: cell-based, human; settings: 100 μM
Text: After 4, 24 and 48 hrs of compound exposure the adherent and floating cells were combined and stained using the TACS Annexin V-FITC Apoptosis detection kit (Trevigen Inc, Gaithersburg, Md., USA) using manufacturer's protocol. Viable, necrotic, early and late apoptotic cells were counted using Accuri flow cytometer as per the manufacturer instructions.

[2] = time course 4-72 h, time stated at the place

With `O=C1NC[C@H](Cc2ccccc2)N(C[C@@H]2CCCN2C[C@@H](CC2CCCCC2)N2C[C@H](Cc3ccc(O)cc3)N(CCc3ccccc3)C(=O)C2=O)C1=O` [Compound 2155-14, (S)-1((R)-1((S)-2-(((S)-6-benzyl-2,3-dioxopiperazin-1-yl)methyl)pyrrolidin-1-yl)-3-cyclohexylpropan-2-yl)-5-(4-hydroxybenzyl)-4-phenethylpiperazine-2,3-dione] the “protection of DDX1 from pronase” value (DDX1) was “protects these proteins from pronase proteolysis”, the “LC3-II level, M14” value [1] was “dose dependent increase” and the “beclin-1 level, M14” value [1] was “dose dependent increase”. The caspase signal (M14 cells; 24 h) was 550 % of untreated control, the caspase signal (M14 cells; 48 h) was 400 % of untreated control and the “ApoTox caspase-3/7 activity” value (M14 cells; [2]) was “no markers for apoptosis and cytotoxicity; also recorded: The 24 h time point was characterized by a significant spike in caspase activity; also recorded: By 72 h the caspase signal has decayed”. The “ApoTox viability (live cell protease)” value (M14 cells; [2]) was “no effect on cell viability as measured by live cell protease at the 4 h time point; also recorded: dose dependent response at 48 h”, the “protection of hnRNPH2 from pronase” value (hnRNP H2) was “protects these proteins from pronase proteolysis” and the “protection of hnRNPA2/B1 from pronase” value (hnRNP A2/B1) was “protects these proteins from pronase proteolysis”. For the same compound, the “early apoptotic and necrotic cells, of total population” value (WM266-4 cells) was “less than 5%”, the “cells undergoing late apoptosis” value (WM266-4 cells; 24 h) was 18% and the “cells undergoing late apoptosis” value (WM266-4 cells; 48 h) was 32%. For the same compound, the “cells undergoing late apoptosis in presence of Z-VAD-FMK” value (WM266-4 cells; 48 h, 10 μM pan-caspase inhibitor) was 29%.
